Calls of active or inactive are those of the source.
Assays:
[1] = biological target: Cyclin-dependent kinase 4 (Homo sapiens, UniProt P11802)
[2] = biological target: T1, Acyl-CoA dehydrogenase family member 10 (Homo sapiens, UniProt Q6JQN1)
T1 sequence (Q6JQN1 whole entry): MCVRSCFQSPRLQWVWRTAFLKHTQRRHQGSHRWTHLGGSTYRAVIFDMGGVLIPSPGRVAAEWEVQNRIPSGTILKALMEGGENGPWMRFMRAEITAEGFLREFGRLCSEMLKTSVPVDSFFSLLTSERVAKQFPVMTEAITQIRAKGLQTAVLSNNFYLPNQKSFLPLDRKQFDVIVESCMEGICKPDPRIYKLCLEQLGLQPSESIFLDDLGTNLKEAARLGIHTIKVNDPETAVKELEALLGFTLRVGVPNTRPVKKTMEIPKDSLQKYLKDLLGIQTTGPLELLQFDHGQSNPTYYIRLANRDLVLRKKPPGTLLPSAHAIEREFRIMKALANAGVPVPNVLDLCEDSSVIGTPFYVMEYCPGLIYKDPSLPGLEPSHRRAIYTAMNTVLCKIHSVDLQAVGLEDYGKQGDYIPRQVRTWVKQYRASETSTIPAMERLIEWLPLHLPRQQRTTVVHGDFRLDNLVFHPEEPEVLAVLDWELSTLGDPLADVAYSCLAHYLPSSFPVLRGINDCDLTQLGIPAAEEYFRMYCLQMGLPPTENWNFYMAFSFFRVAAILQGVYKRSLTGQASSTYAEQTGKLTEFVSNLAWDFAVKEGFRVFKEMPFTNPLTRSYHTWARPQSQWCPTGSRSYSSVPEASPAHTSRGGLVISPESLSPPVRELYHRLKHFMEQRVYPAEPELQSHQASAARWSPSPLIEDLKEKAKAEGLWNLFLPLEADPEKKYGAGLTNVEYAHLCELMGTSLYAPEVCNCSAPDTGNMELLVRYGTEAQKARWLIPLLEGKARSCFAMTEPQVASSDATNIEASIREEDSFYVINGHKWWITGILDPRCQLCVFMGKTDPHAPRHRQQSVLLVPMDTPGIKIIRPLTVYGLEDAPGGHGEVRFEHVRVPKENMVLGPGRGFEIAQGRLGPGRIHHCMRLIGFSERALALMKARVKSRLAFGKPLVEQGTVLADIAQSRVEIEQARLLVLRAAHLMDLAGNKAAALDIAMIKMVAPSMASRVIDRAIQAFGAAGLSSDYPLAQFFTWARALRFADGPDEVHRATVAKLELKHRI

[3] = biological target: T2, Mitogen-activated protein kinase kinase kinase 3 (Homo sapiens, UniProt Q99759)
T2 sequence (Q99759 whole entry): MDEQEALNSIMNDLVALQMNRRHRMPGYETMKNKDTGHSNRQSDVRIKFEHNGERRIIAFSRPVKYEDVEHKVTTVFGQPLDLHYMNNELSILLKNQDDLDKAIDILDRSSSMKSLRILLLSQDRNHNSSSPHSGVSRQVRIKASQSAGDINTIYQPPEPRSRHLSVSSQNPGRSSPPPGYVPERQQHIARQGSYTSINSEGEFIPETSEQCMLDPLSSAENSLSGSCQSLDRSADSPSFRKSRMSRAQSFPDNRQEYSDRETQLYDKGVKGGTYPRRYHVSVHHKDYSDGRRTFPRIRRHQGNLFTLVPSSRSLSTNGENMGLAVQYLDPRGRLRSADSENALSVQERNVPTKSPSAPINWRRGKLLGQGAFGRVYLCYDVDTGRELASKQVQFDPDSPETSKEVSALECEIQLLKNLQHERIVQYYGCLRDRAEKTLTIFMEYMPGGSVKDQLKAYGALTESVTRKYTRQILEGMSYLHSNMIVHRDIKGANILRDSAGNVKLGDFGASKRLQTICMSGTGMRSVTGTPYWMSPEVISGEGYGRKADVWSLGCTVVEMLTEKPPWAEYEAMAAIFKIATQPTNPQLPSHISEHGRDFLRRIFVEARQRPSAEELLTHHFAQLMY

Aurora kinase A = biological target: T3, Aurora kinase A (Homo sapiens, UniProt O14965)
T3 sequence (O14965 whole entry): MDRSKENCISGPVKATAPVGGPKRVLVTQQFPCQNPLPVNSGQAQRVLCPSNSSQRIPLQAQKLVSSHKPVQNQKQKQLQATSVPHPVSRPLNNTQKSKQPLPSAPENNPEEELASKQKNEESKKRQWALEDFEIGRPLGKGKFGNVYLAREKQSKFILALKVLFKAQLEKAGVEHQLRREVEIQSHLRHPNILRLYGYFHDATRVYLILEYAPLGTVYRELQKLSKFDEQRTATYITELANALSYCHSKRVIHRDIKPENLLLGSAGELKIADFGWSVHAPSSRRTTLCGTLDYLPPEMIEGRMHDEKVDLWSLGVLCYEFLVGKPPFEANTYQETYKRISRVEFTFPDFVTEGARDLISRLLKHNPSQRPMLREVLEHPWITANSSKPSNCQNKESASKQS

[4] = biological target: Interleukin-1 receptor-associated kinase 1 (Homo sapiens, UniProt P51617)
[5] = biological target: T4, Cytochrome c1, heme protein, mitochondrial (Homo sapiens, UniProt P08574)
T4 sequence (P08574 whole entry): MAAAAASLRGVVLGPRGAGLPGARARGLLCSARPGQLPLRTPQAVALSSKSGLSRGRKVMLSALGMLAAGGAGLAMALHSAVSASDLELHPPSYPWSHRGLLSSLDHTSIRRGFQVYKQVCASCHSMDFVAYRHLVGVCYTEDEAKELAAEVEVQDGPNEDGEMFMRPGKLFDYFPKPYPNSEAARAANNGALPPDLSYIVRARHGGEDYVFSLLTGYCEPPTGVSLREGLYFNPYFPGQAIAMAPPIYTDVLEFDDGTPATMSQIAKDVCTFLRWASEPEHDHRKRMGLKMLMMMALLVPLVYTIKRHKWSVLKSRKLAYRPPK

[6] = biological target: RAC-alpha serine/threonine-protein kinase (Homo sapiens, UniProt P31749)
Deoxycytidine kinase = Deoxycytidine kinase (Homo sapiens, UniProt P27707)
[7] = biological target: Tyrosine-protein kinase Fer (Homo sapiens, UniProt P16591)
[8] = biological target: T5, Ribosyldihydronicotinamide dehydrogenase [quinone] (Homo sapiens, UniProt P16083)
T5 sequence (P16083 whole entry): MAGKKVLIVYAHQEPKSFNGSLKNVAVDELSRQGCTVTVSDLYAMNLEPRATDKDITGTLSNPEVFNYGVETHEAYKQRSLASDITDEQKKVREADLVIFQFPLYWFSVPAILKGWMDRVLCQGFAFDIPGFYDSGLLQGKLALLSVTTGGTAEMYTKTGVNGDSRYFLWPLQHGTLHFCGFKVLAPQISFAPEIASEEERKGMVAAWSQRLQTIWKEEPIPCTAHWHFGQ
Further: in the data inactive means no Kd found up to 30 µM.

Chain of Cyclin-dependent kinase 4 (P11802 whole entry): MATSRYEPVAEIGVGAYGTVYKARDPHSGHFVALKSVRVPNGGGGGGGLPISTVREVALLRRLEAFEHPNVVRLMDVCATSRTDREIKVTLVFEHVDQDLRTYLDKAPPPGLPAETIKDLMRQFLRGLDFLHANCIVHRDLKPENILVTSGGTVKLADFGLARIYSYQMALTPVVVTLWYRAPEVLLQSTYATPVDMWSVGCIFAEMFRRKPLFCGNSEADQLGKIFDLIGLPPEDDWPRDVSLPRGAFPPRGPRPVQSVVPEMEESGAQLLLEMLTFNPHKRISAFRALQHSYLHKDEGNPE
Chain of Deoxycytidine kinase (P27707 whole entry): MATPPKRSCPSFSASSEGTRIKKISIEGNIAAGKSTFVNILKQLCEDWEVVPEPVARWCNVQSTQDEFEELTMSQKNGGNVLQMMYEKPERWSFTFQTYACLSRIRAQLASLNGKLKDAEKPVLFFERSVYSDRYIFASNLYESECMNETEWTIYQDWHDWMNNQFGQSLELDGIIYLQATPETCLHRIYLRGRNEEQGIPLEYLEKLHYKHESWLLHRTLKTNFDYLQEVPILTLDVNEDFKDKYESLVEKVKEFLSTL
Chain of Interleukin-1 receptor-associated kinase 1 (P51617 whole entry): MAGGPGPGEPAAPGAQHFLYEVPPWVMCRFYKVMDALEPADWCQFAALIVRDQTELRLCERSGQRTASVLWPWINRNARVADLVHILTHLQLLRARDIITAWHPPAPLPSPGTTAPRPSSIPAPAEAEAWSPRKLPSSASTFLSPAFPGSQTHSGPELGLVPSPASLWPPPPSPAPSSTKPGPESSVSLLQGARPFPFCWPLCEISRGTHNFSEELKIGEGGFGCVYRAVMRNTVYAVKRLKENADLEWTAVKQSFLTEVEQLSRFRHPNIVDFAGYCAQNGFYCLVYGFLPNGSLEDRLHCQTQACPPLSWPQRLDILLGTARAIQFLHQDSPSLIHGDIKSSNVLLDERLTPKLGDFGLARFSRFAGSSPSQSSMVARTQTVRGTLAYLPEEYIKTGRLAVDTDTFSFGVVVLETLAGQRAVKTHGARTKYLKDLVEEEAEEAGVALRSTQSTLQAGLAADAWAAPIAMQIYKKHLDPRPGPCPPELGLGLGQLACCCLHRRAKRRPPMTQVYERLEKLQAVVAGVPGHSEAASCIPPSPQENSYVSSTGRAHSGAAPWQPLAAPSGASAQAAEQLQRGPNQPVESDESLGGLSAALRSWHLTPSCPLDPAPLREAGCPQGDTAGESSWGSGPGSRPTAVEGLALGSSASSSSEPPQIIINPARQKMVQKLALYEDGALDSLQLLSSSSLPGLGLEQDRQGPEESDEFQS
Chain of RAC-alpha serine/threonine-protein kinase (P31749 whole entry): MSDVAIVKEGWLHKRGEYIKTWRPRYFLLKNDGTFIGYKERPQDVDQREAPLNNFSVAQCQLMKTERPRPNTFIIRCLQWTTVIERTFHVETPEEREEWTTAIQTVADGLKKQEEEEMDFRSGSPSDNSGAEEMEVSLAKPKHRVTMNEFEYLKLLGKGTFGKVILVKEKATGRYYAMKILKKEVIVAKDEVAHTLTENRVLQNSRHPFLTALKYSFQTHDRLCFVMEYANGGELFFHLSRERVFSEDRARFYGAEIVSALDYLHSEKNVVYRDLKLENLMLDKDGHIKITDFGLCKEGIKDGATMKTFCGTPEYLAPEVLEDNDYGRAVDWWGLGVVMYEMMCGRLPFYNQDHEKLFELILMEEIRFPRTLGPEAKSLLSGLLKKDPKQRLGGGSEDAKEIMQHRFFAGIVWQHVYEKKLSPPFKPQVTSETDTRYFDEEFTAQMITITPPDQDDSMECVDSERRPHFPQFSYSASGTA
Chain of Tyrosine-protein kinase Fer (P16591 whole entry): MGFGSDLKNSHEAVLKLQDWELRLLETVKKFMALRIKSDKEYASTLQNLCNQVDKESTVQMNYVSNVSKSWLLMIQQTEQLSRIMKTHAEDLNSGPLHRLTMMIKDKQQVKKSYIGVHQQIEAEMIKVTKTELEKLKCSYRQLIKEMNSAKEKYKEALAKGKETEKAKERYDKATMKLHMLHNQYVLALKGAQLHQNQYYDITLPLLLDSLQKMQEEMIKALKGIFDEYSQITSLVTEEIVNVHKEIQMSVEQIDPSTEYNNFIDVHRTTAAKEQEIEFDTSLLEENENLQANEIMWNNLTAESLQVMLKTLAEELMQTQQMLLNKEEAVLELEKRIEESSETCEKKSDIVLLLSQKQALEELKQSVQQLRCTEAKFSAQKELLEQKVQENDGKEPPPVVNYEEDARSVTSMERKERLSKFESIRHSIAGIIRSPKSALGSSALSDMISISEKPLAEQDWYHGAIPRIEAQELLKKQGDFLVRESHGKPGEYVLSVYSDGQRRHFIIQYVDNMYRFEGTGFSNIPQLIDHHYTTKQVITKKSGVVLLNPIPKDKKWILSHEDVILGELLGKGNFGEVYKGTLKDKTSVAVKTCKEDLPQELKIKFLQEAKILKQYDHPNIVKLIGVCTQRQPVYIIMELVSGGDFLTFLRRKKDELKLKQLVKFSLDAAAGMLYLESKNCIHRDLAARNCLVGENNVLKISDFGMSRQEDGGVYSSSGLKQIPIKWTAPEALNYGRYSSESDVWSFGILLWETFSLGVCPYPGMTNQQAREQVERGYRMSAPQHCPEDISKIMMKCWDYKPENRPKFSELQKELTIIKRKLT

| Compound | Kd [1] | Kd [2] | Kd [3] | Kd (Aurora kinase A) | Kd [4] | Kd [5] | Kd [6] | Kd (Deoxycytidine kinase) | Kd [7] | Kd [8] |
| --- | --- | --- | --- | --- | --- | --- | --- | --- | --- | --- |
| O=C(Nc1ccc(OC(F)(F)F)cc1)c1sccc1NCc1ccnc2ccccc12 [OSI-930] | > 30 µM (inactive) | > 30 µM (inactive) | > 30 µM (inactive) | > 30 µM (inactive) | > 30 µM (inactive) | > 30 µM (inactive) | > 30 µM (inactive) | > 30 µM (inactive) | > 30 µM (inactive) | > 30 µM (inactive) |
| COc1cccc(Nc2ncnn3ccc(CN4CC[C@@H](N)[C@H](O)C4)c23)c1 [BMS-690514] | > 30 µM (inactive) | > 30 µM (inactive) | 0.546 µM (active) | > 30 µM (inactive) | > 30 µM (inactive) | > 30 µM (inactive) | > 30 µM (inactive) | > 30 µM (inactive) | > 30 µM (inactive) | > 30 µM (inactive) |
| COc1cc2ncnc3c2cc1OCCCCCN(C)Cc1ccc(Br)cc1N3 [JNJ-26483327] | > 30 µM (inactive) | > 30 µM (inactive) | > 30 µM (inactive) | > 30 µM (inactive) | > 30 µM (inactive) | > 30 µM (inactive) | > 30 µM (inactive) | > 30 µM (inactive) | > 30 µM (inactive) | > 30 µM (inactive) |
| CCc1cc2c(cc1N1CCC(N3CCOCC3)CC1)C(C)(C)c1[nH]c3cc(C#N)ccc3c1C2=O [ALECTINIB] | > 30 µM (inactive) | > 30 µM (inactive) | > 30 µM (inactive) | > 30 µM (inactive) | > 30 µM (inactive) | > 30 µM (inactive) | > 30 µM (inactive) | > 30 µM (inactive) | 3.76 µM (active) | > 30 µM (inactive) |
| CNC(=O)c1cccc(-c2ccc3c(N4CCOC[C@@H]4C)nc(N4CCOC[C@@H]4C)nc3n2)c1 [VISTUSERTIB] | > 30 µM (inactive) | > 30 µM (inactive) | > 30 µM (inactive) | > 30 µM (inactive) | > 30 µM (inactive) | > 30 µM (inactive) | > 30 µM (inactive) | > 30 µM (inactive) | > 30 µM (inactive) | > 30 µM (inactive) |
| C=CCn1c(=O)c2cnc(Nc3ccc(N4CCN(C)CC4)cc3)nc2n1-c1cccc(C(C)(C)O)n1 [ADAVOSERTIB] | > 30 µM (inactive) | > 30 µM (inactive) | > 30 µM (inactive) | > 30 µM (inactive) | > 30 µM (inactive) | > 30 µM (inactive) | > 30 µM (inactive) | > 30 µM (inactive) | > 30 µM (inactive) | > 30 µM (inactive) |
| CC(C)(O)CC(=O)NCCn1ccc2ncnc(Nc3ccc(Oc4cccc(C(F)(F)F)c4)c(Cl)c3)c21 [TAK-285] | > 30 µM (inactive) | – | > 30 µM (inactive) | > 30 µM (inactive) | > 30 µM (inactive) | > 30 µM (inactive) | > 30 µM (inactive) | > 30 µM (inactive) | > 30 µM (inactive) | > 30 µM (inactive) |
| C[C@@H]1COC(Nc2ccc3ncnc(Nc4ccc(OCc5nccs5)c(Cl)c4)c3c2)=N1 [VARLITINIB] | > 30 µM (inactive) | – | > 30 µM (inactive) | > 30 µM (inactive) | > 30 µM (inactive) | > 30 µM (inactive) | > 30 µM (inactive) | > 30 µM (inactive) | > 30 µM (inactive) | > 30 µM (inactive) |
| COc1cc2ncnc(Nc3ccc(O)cc3)c2cc1OC [WHI-P131] | > 30 µM (inactive) | – | > 30 µM (inactive) | > 30 µM (inactive) | > 30 µM (inactive) | > 30 µM (inactive) | > 30 µM (inactive) | > 30 µM (inactive) | > 30 µM (inactive) | > 30 µM (inactive) |
| CCN1CCN(Cc2ccc(Nc3ncc(F)c(-c4cc(F)c5nc(C)n(C(C)C)c5c4)n3)nc2)CC1 [ABEMACICLIB] | – | – | > 30 µM (inactive) | > 30 µM (inactive) | 0.126 µM (active) | > 30 µM (inactive) | > 30 µM (inactive) | > 30 µM (inactive) | > 30 µM (inactive) | > 30 µM (inactive) |
